Results: US7060678B2, “Peptides comprising furanoid sugar amino acids for the treatment of cancer” (Dabur Research Foundation, priority 2003, dated 2006)
Like-named read-outs stand apart in the source and are kept apart here. Starred links: 1 amine or outer side, 2 acyl side, 3 side chain; linkers in the order of their positions; H or OH if unused. Non-standard residues stand in square brackets, D forms with d. Residues, ends and D or L forms follow the SMILES beside them. 2Furoyl(5-aminomethyl) = O=C(c1ccc(CN[*:1])o1)[*:2]; X2 = O=C([C@@H]1CC[C@H](CN[*:1])O1)[*:2]; X1 = O=C(C1CCC(CN[*:1])O1)[*:2]

What was measured:
HeP-2 (larynx) = assay: MTT cytotoxicity assay, HeP-2 cells; format: cell-based, human; settings: human, 48 hours
Source text: (§1) The following cell lines were used.

KB (oral) = assay: MTT cytotoxicity assay, KB cells; format: cell-based, human; settings: human, 48 hours
Source text: as §1

[1] = system: MiaPaCa.2 (human pancreas); assay: MTT cytotoxicity assay, MiaPaCa.2 cells; format: cell-based; settings: 48 hours
Source text: as §1

HeP-G2 (liver) = assay: MTT cytotoxicity assay, HeP-G2 cells; format: cell-based, human; settings: human, 48 hours
Source text: as §1

PA1 (human ovary) = assay: MTT cytotoxicity assay, PA1 cells; format: cell-based; settings: 48 hours
Source text: as §1

ECV-304 (endothelial) = settings: ECV-304 cells, 48 hours, NA = Not Active
Source text: Although sterile phosphate buffered saline was used to prepare each stock solution for the testing described in the following example, other diluents may be used such as buffered saline, isotonic NaCl, Ringer's solution, water, distilled water, polyethylene glycol (neat or in water), Tween in water, dimethylsulfoxide up to 50% in water, propylene glycol (neat or in water), phosphate buffered saline, balanced salt solution, glycerol, and other conventional fluids that are suitable for parentral administration. To obtain a pH in the range of approximately 3.5 to 7.0, for each stock solution, the pH can be adjusted by using 1N HCl for lowering the pH or 1N NaOH for raising the pH, although other buffers such as citrate buffer, phosphate buffer and the like or other conventional agents for adjusting the pH can be used.
The MTT assay is based on the principle of uptake of MTT [3-[4,5-dimethylthiazol-2-yl]-2,5-diphenyl tetrazolium bromide], a tetrazolium salt, by the metabolically active cells where it is metabolized by active mitochondria into a blue colored formazan product which can be read spectrophotometrically. […] The formazan crystals formed inside the cells were dissolved with a detergent comprising of 10% Sodium dodecyl sulfate and 0.01 N HCl and optical density read on a multi-scan ELISA reader. The optical density was directly proportional to the number of proliferating and metabolically active cells. The following cell lines were used. PA1(human ovary), PTC (colon), HeP-2 (larynx), MiaPaCa.2 (human pancreas), KB (oral), ECV-304 (endothelial) and HeP-G2 (liver).

PTC (colon) = assay: MTT cytotoxicity assay, PTC cells; format: cell-based, human; settings: human, 48 hours
Source text: as §1

| Compound | Percent Cytotoxicity (HeP-2 (larynx); 1 nM) | Percent Cytotoxicity (HeP-2 (larynx); 10 nM) | Percent Cytotoxicity (HeP-2 (larynx); 100 nM) | Percent Cytotoxicity (HeP-2 (larynx); 1 μM) | Percent Cytotoxicity (KB (oral); 1 nM) | Percent Cytotoxicity (KB (oral); 10 nM) | Percent Cytotoxicity (KB (oral); 100 nM) | Percent Cytotoxicity (KB (oral); 1 μM) | Percent Cytotoxicity ([1]; human, 1 nM) | Percent Cytotoxicity ([1]; human, 10 nM) | Percent Cytotoxicity ([1]; human, 100 nM) | Percent Cytotoxicity (PA1 (human ovary); human, 1 nM) | Percent Cytotoxicity (PA1 (human ovary); human, 10 nM) | Percent Cytotoxicity (PA1 (human ovary); human, 100 nM) | Percent Cytotoxicity (PA1 (human ovary); human, 1 μM) | Percent Cytotoxicity (ECV-304 (endothelial); peptide 1 nM) | Percent Cytotoxicity (ECV-304 (endothelial); peptide 10 nM) | Percent Cytotoxicity (ECV-304 (endothelial); peptide 100 nM) | Percent Cytotoxicity (PTC (colon); 1 nM) | Percent Cytotoxicity (PTC (colon); 10 nM) | further results |
| --- | --- | --- | --- | --- | --- | --- | --- | --- | --- | --- | --- | --- | --- | --- | --- | --- | --- | --- | --- | --- | --- |
| CSCC[C@H](NC(=O)[C@@H](N)CC(C)C)C(=O)N[C@@H](Cc1ccc(O)cc1)C(=O)NC[C@H]1O[C@H](C(=O)N[C@H](C(=O)N[C@@H](Cc2ccc(O)cc2)C(=O)N[C@@H](CC(C)C)C(=O)N[C@@H](CCCCN)C(=O)O)[C@@H](C)O)[C@@H](OCc2ccccc2)[C@@H]1OCc1ccccc1 [SEQ ID NO: 3, Leu-Met-Tyr-Saa2-Thr-Tyr-Leu-Lys] | 12.6 ± 2.8% | 15.4 ± 1.3% | 13.9 ± 0.5% | 10.8 ± 0.5% | 12.9 ± 1.3% | 17.7 ± 0.5% | 14.9 ± 1.1% | 9.5 ± 0.1% | 21.8 ± 2.1% | 24.0 ± 2.7% | 17.9 ± 1.8% | 16.8 ± 1.4% | 18.0 ± 1.8% | 12.5 ± 0.0% | 10.8 ± 0.6% | – | – | – | – | – | Percent Cytotoxicity ([1]; human, 1 μM): 13.9 ± 0.4%; Percent Cytotoxicity (HeP-G2 (liver); 1 nM): 12.3 ± 0.4%; Percent Cytotoxicity (HeP-G2 (liver); 10 nM): 10.7 ± 0.1%; Percent Cytotoxicity (HeP-G2 (liver); 100 nM): 9.5 ± 1.0%; Percent Cytotoxicity (HeP-G2 (liver); 1 μM): 6.9 ± 0.0% |
| CSCC[C@H](NC(=O)[C@@H](N)CC(C)C)C(=O)NCC1CCC(C(=O)N[C@H](C(=O)N[C@@H](Cc2ccc(O)cc2)C(=O)N[C@@H](CC(C)C)C(=O)N[C@@H](CCCCN)C(=O)O)[C@@H](C)O)O1 (stereo partly drawn) [SEQ ID NO: 8, Leu-Met-Saa3-Thr-Tyr-Leu-Lys] (H-LM[X1]TYLK-OH) | – | – | – | – | – | – | – | – | – | – | – | – | – | – | – | 15.3 ± 1.6% | 12.7 ± 1.6% | 10.8 ± 2.9% | – | – | Percent Cytotoxicity ([1]; MiaPaCa.2 cells, peptide 1 nM, NA = Not Active): 22.9 ± 2.2%; Percent Cytotoxicity ([1]; MiaPaCa.2 cells, peptide 10 nM, NA = Not Active): 25.5 ± 2.9%; Percent Cytotoxicity ([1]; MiaPaCa.2 cells, peptide 100 nM, NA = Not Active): 22.9 ± 2.6%; Percent Cytotoxicity ([1]; MiaPaCa.2 cells, peptide 1 μM, NA = Not Active): 19.0 ± 0.6%; Percent Cytotoxicity (ECV-304 (endothelial); peptide 1 μM): 7.9 ± 0.1%; Percent Cytotoxicity (PA1 (human ovary); PA1 cells, peptide 1 nM, NA = Not Active): 12.7 ± 1.9%; Percent Cytotoxicity (PA1 (human ovary); PA1 cells, peptide 10 nM, NA = Not Active): 18.0 ± 1.0%; Percent Cytotoxicity (PA1 (human ovary); PA1 cells, peptide 100 nM, NA = Not Active): 14.8 ± 1.9%; Percent Cytotoxicity (PA1 (human ovary); PA1 cells, peptide 1 μM, NA = Not Active): 9.6 ± 1.0% |
| CSCC[C@H](NC(=O)[C@@H](N)CC(C)C)C(=O)N[C@@H](Cc1ccc(O)cc1)C(=O)NCc1ccc(C(=O)N[C@@H](Cc2ccc(O)cc2)C(=O)N[C@@H](CC(C)C)C(=O)N[C@@H](CCCCN)C(=O)O)o1 [SEQ ID NO: 10, Leu-Met-Tyr-Saa1-Tyr-Leu-Lys] (H-LMY[2Furoyl(5-aminomethyl)]YLK-OH) | 35.4 ± 2.9% | 32.0 ± 2.1% | 31.8 ± 3.1% | 28.9 ± 2.1% | 32.0 ± 2.5% | 31.9 ± 2.9% | 29.6 ± 0.7% | 26.0 ± 1.8% | 14.9 ± 1.9% | 12.0 ± 1.7% | 9.0 ± 0.6% | 37.5 ± 3.8% | 32.0 ± 2.9% | 31.0 ± 2.7% | 28.4 ± 2.2% | 15.2 ± 1.0% | 12.9 ± 0.5% | 9.4 ± 0.2% | 30.5 ± 3.2% | 28.0 ± 2.2% | Percent Cytotoxicity (PTC (colon); 100 nM): 25.6 ± 2.2%; Percent Cytotoxicity (PTC (colon); 1 μM): 21.8 ± 2.8% |
| CSCC[C@H](NC(=O)[C@@H](N)CC(C)C)C(=O)N[C@@H](Cc1ccc(O)cc1)C(=O)NC[C@H]1CC[C@@H](C(=O)N[C@@H](Cc2ccc(O)cc2)C(=O)N[C@@H](CC(C)C)C(=O)N[C@@H](CCCCN)C(=O)O)O1 [SEQ ID NO: 13, Leu-Met-Tyr-Saa4-Tyr-Leu-Lys] (H-LMY[X2]YLK-OH) | 23.0 ± 2.1% | 21.8 ± 1.8% | 17.9 ± 1.9% | 16.4 ± 0.6% | 30.0 ± 2.8% | 27.9 ± 2.1% | 26.9 ± 2.1% | 21.4 ± 2.1% | 17.5 ± 1.9% | 14.0 ± 0.6% | 8.0 ± 0.6% | 44.0 ± 3.9% | 41.0 ± 4.2% | 38.0 ± 3.9% | 35.5 ± 2.4% | 23.0 ± 1.6% | 21.0 ± 2.6% | 18.0 ± 1.6% | 28.5 ± 2.0% | 26.0 ± 2.9% | Percent Cytotoxicity (PTC (colon); 100 nM): 22.8 ± 2.1%; Percent Cytotoxicity (PTC (colon); 1 μM): 20.8 ± 1.8%; Percent Cytotoxicity (ECV-304 (endothelial); peptide 1 μM): 12.1 ± 1.3% |
| CSCC[C@H](N)C(=O)NCc1ccc(C(=O)N[C@@H](Cc2ccc(O)cc2)C(=O)N[C@@H](CC(C)C)C(=O)O)o1 [SEQ ID NO: 14, Met-Saa1-Tyr-Leu] | 11.0 ± 1.9% | 10.6 ± 1.1% | 6.0 ± 0.8% | – | 14.5 ± 0.4% | 12.9 ± 0.5% | – | – | 17.0 ± 1.7% | 13.9 ± 1.1% | 7.0 ± 0.3% | – | – | – | – | 12.7 ± 0.4% | 13.0 ± 0.6% | 6.0 ± 0.0% | 28.9 ± 2.2% | 26.9 ± 2.9% | Percent Cytotoxicity (PTC (colon); 100 nM): 21.8 ± 1.0%; Percent Cytotoxicity (PTC (colon); 1 μM): 15.0 ± 0.5% |
| CSCC[C@H](NC(=O)[C@@H](N)CC(C)C)C(=O)NCc1ccc(C(=O)N[C@@H](Cc2ccc(O)cc2)C(=O)N[C@@H](CC(C)C)C(=O)N[C@@H](CCCCN)C(=O)O)o1 [SEQ ID NO: 18, Leu-Met-Saa1-Tyr-Leu-Lys] (H-LM[2Furoyl(5-aminomethyl)]YLK-OH) | 47.0 ± 4.8% | 38.3 ± 2.0% | 35.8 ± 2.4% | 32.9 ± 2.6% | 15.9 ± 1.0% | 12.0 ± 0.3% | 14.0 ± 1.0% | 9.3 ± 0.4% | 24.8 ± 2.0% | 21.0 ± 2.6% | 18.5 ± 0.6% | 18.3 ± 1.8% | 22.8 ± 2.9% | 21.8 ± 2.1% | 20.3 ± 2.6% | 11.0 ± 0.6% | – | – | 19.0 ± 1.6% | 28.4 ± 1.0% | Percent Cytotoxicity ([1]; human, 1 μM): 15.0 ± 0.6%; Percent Cytotoxicity (PTC (colon); 100 nM): 23.9 ± 2.9%; Percent Cytotoxicity (PTC (colon); 1 μM): 21.7 ± 1.5% |
